Measurements published in US8691822B2, “Dihydropteridinone derivatives, preparation process and pharmaceutical use thereof” (Jiangsu Hengrui Medicine Co., Ltd., priority 2009, dated 2014).

Each compound was assayed on human cervix cancer cells Hela (assay: Plk Cell Proliferation Inhibition Assay (CCK8, 72 hours)). Conditions: Hela cells highly expressing Plk.
Assay type: cell-based
Text: The following in vitro assay is to determine the activity of the compounds of the present invention for inhibiting the proliferation of human cervix cancer cells Hela, which has high expression of Plk.
The in vitro cellular assay described here is to determine the activity of the tested compounds for inhibiting the proliferation of cancer cells, which has high expression of Plk. The activity is represented by the […]. The general procedures for the assay are given as follows: The Hela cells highly expressing Plk (Institute of biochemistry and cell biology) were seeded to 96-well cell culture plate at a suitable concentration (exp 3000 cells/ml medium). The cells then were cultured in carbon dioxide (CO2) incubator and grew overnight. Then, the cell culture medium was replaced by fresh one with tested compounds added in it at serial concentrations (general 7 to 9 concentrations). Then the cells were put back to the incubator and cultured for continuous 72 hours. 72 hours later, the activity of the tested compounds for inhibiting the cell proliferation was determined by using CCK8 (cell counting kit-8, Dojindo, NO:CK04) method. IC50 value on tested cells were calculated by the data of inhibition rates of serial concentrations of the tested compounds.

With `CC[C@@H]1C(=O)N(C)c2cnc(Nc3ccc(C(=O)NCC4CN(C)CCO4)c4c3OCC4)nc2N1C1CCCC1` (stereo partly drawn) [Example 2, 7-[[(7R)-8-cyclopentyl-7-ethyl-5-methyl-6-oxo-7H-pteridin-2-yl]amino]-N-[(4-methylmorpholin-2-yl)methyl]-2,3-dihydrobenzofuran-4-carboxamide] as the compound, how does the IC50 read?
The IC50 was 8 nM.

How did the IC50 turn out when `CC[C@@H]1C(=O)N(C)c2cnc(Nc3ccc(C(=O)N[C@@H]4C[C@@H](OC(C)=O)[C@H](N(C)C)C[C@H]4OC(C)=O)c4c3OCC4)nc2N1C1CCCC1` [Example 3, [(1R,2R,4R,5R)-4-Acetoxy-2-[[7-[[(7R)-8-cyclopentyl-7-ethyl-5-methyl-6-oxo-7H-pteridin-2-yl]amino]-2,3-dihydrobenzofuran-4-carbonyl]amino]-5-dimethylamino-cyclohexyl]acetate] was run?
The IC50 was 7 nM.

For `CC[C@@H]1C(=O)N(C)c2cnc(Nc3ccc(C(=O)NC4CCN(C)CC4)c4c3OC(C)(C)C4)nc2N1C1CCCC1` [Example 4, 7-[[(7R)-8-Cyclopentyl-7-ethyl-5-methyl-6-oxo-7H-pteridin-2-yl]amino]-2,2-dimethyl-N-(1-methyl-4-piperidyl)-3H-benzofuran-4-carboxamide], which IC50 is on record?
The IC50 was 2 nM.

`CC[C@@H]1C(=O)N(C)c2cnc(Nc3ccc(C(=O)N[C@@H]4C[C@@H]5CN(C)C[C@@H]5C4)c4c3OCC4)nc2N1C1CCCC1` [Example 5] was tested. Which IC50 did it give?
Its IC50 is 1 nM.

With `CC[C@@H]1C(=O)N(C)c2cnc(Nc3ccc(C(=O)N[C@@H]4C[C@@H]5CN(C)C[C@@H]5C4)c4c3OC(C)(C)C4)nc2N1C1CCCC1` [Example 6, (cis-exo)-N-[2-Methyl-3,3a,4,5,6,6a-hexahydro-1H-cyclopenta[c]pyrrol-5-yl]-7-[[(7R)-8-cyclopentyl-7-ethyl-5-methyl-6-oxo-7H-pteridin-2-yl]amino]-2,2-dimethyl-3H-benzofuran-4-carboxamide] as the compound, how does the IC50 read?
The IC50 was 2 nM.

With `CC[C@@H]1C(=O)N(C)c2cnc(Nc3ccc(C(=O)NC[C@H](O)CN4CCN(CC5CC5)CC4)c4c3OCC4)nc2N1C1CCCC1` [Example 7, 7-[[(7R)-8-Cyclopentyl-7-ethyl-5-methyl-6-oxo-7H-pteridin-2-yl]amino]-N-[(2S)-3-[4-(cyclopropylmethyl)piperazin-1-yl]-2-hydroxy-propyl]-2,3-dihydrobenzofuran-4-carboxamide] as the compound, how does the IC50 read?
The IC50 was 3 nM.

With `CC[C@@H]1C(=O)N(C)c2cnc(Nc3ccc(C(=O)NC[C@H](O)CN4CCN(C)CC4)c4c3OCC4)nc2N1C1CCCC1` [Example 8, 7-[[(7R)-8-Cyclopentyl-7-ethyl-5-methyl-6-oxo-7H-pteridin-2-yl]amino]-N-[(2S)-2-hydroxy-3-(4-methylpiperazin-1-yl)propyl]-2,3-dihydrobenzofuran-4-carboxamide] as the compound, how does the IC50 read?
Its IC50 is 3 nM.

Which IC50 does the source give for `CC[C@@H]1C(=O)N(C)c2cnc(Nc3ccc(C(=O)N[C@H]4C[C@@H]5CN(C)C[C@@H]5C4)c4c3OC(C)(C)C4)nc2N1C1CCCC1` [Example 9, (cis-endo)-N-[2-Methyl-3,3α,4,5,6,6α-hexahydro-1H-cyclopenta[c]pyrrol-5-yl]-7-[[(7R)-8-cyclopentyl-7-ethyl-5-methyl-6-oxo-7H-pteridin-2-yl]amino]-2,2-dimethyl-3H-benzofuran-4-carboxamide] here?
Its IC50 is 2 nM.

With `CC[C@@H]1C(=O)N(C)c2cnc(Nc3ccc(C(=O)N[C@H]4C[C@@H]5CN(CC6CC6)C[C@@H]5C4)c4c3OC(C)(C)C4)nc2N1C1CCCC1` [Example 10, N-[(cis-endo)-2-(Cyclopropylmethyl)-3,3a,4,5,6,6a-hexahydro-1H-cyclopenta[c]pyrrol-5-yl]-7-[[(7R)-8-cyclopentyl-7-ethyl-5-methyl-6-oxo-7H-pteridin-2-yl]amino]-2,2-dimethyl-3H-benzofuran-4-carboxamide] as the compound, how does the IC50 read?
The IC50 was 5 nM.

With `CC[C@@H]1C(=O)N(C)c2cnc(Nc3ccc(C(=O)N[C@H]4C[C@@H]5CN(C)C[C@@H]5C4)c4c3OCC4)nc2N1C1CCCC1` [Example 11, (cis-endo)-N-[2-Methyl-3,3a,4,5,6,6a-hexahydro-1H-cyclopenta[c]pyrrol-5-yl]-7-[[(7R)-8-cyclopentyl-7-ethyl-5-methyl-6-oxo-7H-pteridin-2-yl]amino]-2,3-dihydrobenzofuran-4-carboxamide] as the compound, how does the IC50 read?
The IC50 was 1 nM.

Which IC50 does the source give for `CC[C@@H]1C(=O)N(C)c2cnc(Nc3ccc(C(=O)N[C@H]4CC[C@@H](N5CCN(CC6CC6)CC5)CC4)c4c3OCC4)nc2N1C1CCCC1` [Example 12, 7-[[(7R)-8-Cyclopentyl-7-ethyl-5-methyl-6-oxo-7H-pteridin-2-yl]amino]-N-[(cis)-4-[4-(cyclopropylmethyl)piperazin-1-yl]cyclohexyl]-2,3-dihydrobenzofuran-4-carboxamide] here?
Its IC50 is 0.8 nM.

How did the IC50 turn out when `CC[C@@H]1C(=O)N(C)c2cnc(Nc3ccc(C(=O)N[C@H]4C[C@@H]5CN(CC6CC6)C[C@@H]5C4)c4c3OCC4)nc2N1C1CCCC1` [Example 13, (cis-endo)-N-[2-(Cyclopropylmethyl)-3,3a,4,5,6,6a-hexahydro-1H-cyclopenta[c]pyrrol-5-yl]-7-[[(7R)-8-cyclopentyl-7-ethyl-5-methyl-6-oxo-7H-pteridin-2-yl]amino]-2,3-dihydrobenzofuran-4-carboxamide] was run?
The IC50 was 1 nM.

`CC[C@@H]1C(=O)N(C)c2cnc(Nc3ccc(C(=O)N[C@@H]4C[C@H]5CCN(C)C[C@H]5C4)c4c3OCC4)nc2N1C1CCCC1` [Example 14, (cis-endo)-N-[2-Methyl-1,3,3a,4,5,6,7,7a-octahydrocyclopenta[c]pyridin-6-yl]-7-[[(7R)-8-cyclopentyl-7-ethyl-5-methyl-6-oxo-7H-pteridin-2-yl]amino]-2,3-dihydrobenzofuran-4-carboxamide] was tested. Which IC50 did it give?
The IC50 was 1 nM.

Which IC50 does the source give for `CC[C@@H]1C(=O)N(C)c2cnc(Nc3ccc(C(=O)NC[C@@H]4CN(C)CCO4)c4c3OCC4)nc2N1C1CCCC1` [Example 15, 7-[[(7R)-8-Cyclopentyl-7-ethyl-5-methyl-6-oxo-7H-pteridin-2-yl]amino]-N-[[(2R)-4-methylmorpholin-2-yl]methyl]-2,3-dihydrobenzofuran-4-carboxamide] here?
The IC50 was 3 nM.

With `CC[C@@H]1C(=O)N(C)c2cnc(Nc3ccc(C(=O)N[C@H]4CC[C@H](N5CCN(CC6CC6)CC5)CC4)c4c3OC(C)(C)C4)nc2N1C1CCCC1` [Example 16, 7-[[(7R)-8-Cyclopentyl-7-ethyl-5-methyl-6-oxo-7H-pteridin-2-yl]amino]-N-[(trans)-4-[4-(cyclopropylmethyl)piperazin-1-yl]cyclohexyl]-2,2-dimethyl-3H-benzofuran-4-carboxamide] as the compound, how does the IC50 read?
The IC50 was 30 nM.

Which IC50 does the source give for `CC[C@@H]1C(=O)N(C)c2cnc(Nc3ccc(C(=O)N[C@H]4CC[C@H](N5CCN(C)CC5)CC4)c4c3OC(C)(C)C4)nc2N1C1CCCC1` [Example 17, 7-[[(7R)-8-Cyclopentyl-7-ethyl-5-methyl-6-oxo-7H-pteridin-2-yl]amino]-2,2-dimethyl-N-[(trans)-4-(4-methylpiperazin-1-yl)cyclohexyl]-3H-benzofuran-4-carboxamide] here?
The IC50 was 10 nM.

How did the IC50 turn out when `CC[C@@H]1C(=O)N(C)c2cnc(Nc3ccc(C(=O)N[C@H]4CC[C@H](N5CCN(C)CC5)CC4)c4c3OCC4)nc2N1C1CCCC1` [Example 19, 7-[[(7R)-8-Cyclopentyl-7-ethyl-5-methyl-6-oxo-7H-pteridin-2-yl]amino]-N-[(trans)-4-(4-methylpiperazin-1-yl)cyclohexyl]-2,3-dihydrobenzofuran-4-carboxamide] was run?
The IC50 was 3 nM.

How did the IC50 turn out when `CC[C@@H]1C(=O)N(C)c2cnc(Nc3ccc(C(=O)NC[C@@H](O)CN4CCN(C)CC4)c4c3OC(C)(C)C4)nc2N1C1CCCC1` [Example 20, 7-[[(7R)-8-Cyclopentyl-7-ethyl-5-methyl-6-oxo-7H-pteridin-2-yl]amino]-N-[(2R)-3-(4-methylpiperazin-1-yl)-2-hydroxy-propyl]-2,2-dimethyl-3H-benzofuran-4-carboxamide] was run?
Its IC50 is 8 nM.

How did the IC50 turn out when `CC[C@@H]1C(=O)N(C)c2cnc(Nc3ccc(C(=O)NC[C@H](O)CN4CCN(C)CC4)c4c3OC(C)(C)C4)nc2N1C1CCCC1` [Example 21, 7-[[(7R)-8-Cyclopentyl-7-ethyl-5-methyl-6-oxo-7H-pteridin-2-yl]amino]-N-[(2S)-3-(4-methylpiperazin-1-yl)-2-hydroxy-propyl]-2,2-dimethyl-3H-benzofuran-4-carboxamide] was run?
The IC50 was 7 nM.

For `CC[C@@H]1C(=O)N(C)c2cnc(Nc3ccc(C(=O)NC4CCN(C)CC4)c4c3OCC4)nc2N1C(C)C` [Example 22, 7-[[(7R)-7-Ethyl-8-isopropyl-5-methyl-6-oxo-7H-pteridin-2-yl]amino]-N-(1-methyl-4-piperidyl)-2,3-dihydrobenzofuran-4-carboxamide], which IC50 is on record?
The IC50 was 2 nM.

Which IC50 does the source give for `CC[C@@H]1C(=O)N(C)c2cnc(Nc3ccc(C(=O)N[C@H]4C[C@@H]5CN(C)C[C@@H]5C4)c4c3OCC4)nc2N1C(C)C` [Example 24, (cis-endo)-N-[2-Methyl-3,3a,4,5,6,6a-hexahydro-1H-cyclopenta[c]pyrrol-5-yl]-7-[[(7R)-7-ethyl-8-isopropyl-5-methyl-6-oxo-7H-pteridin-2-yl]amino]-2,3-dihydrobenzofuran-4-carboxamide] here?
The IC50 was 2 nM.

With `CC[C@@H]1C(=O)N(C)c2cnc(Nc3ccc(C(=O)NC[C@@H](O)CN4CCN(C)CC4)c4c3OCC4)nc2N1C1CCCC1` [Example 25, 7-[[(7R)-8-Cyclopentyl-7-ethyl-5-methyl-6-oxo-7H-pteridin-2-yl]amino]-N-[(2R)-2-hydroxy-3-(4-methylpiperazin-1-yl)propyl]-2,3-dihydrobenzofuran-4-carboxamide] as the compound, how does the IC50 read?
Its IC50 is 3 nM.
